One data set relates to hepatitis B virus (HBV). Briefly: In vitro pharmacological test: HBV DNA replication in HepG2.2.15 cells. The format is cell-based. The protocol:
The inhibitory effect of the compounds of the invention on hepatitis B virus (HBV) was tested. The cytotoxicity of the compounds of the invention and the effect thereof on viral (HBV) nucleic acid (DNA) replication levels were tested at cellular level.
HepG2.2.15 cells in logarithmic growth phase were seeded in a 96-well plate at a cell concentration of 40 cells/μL, and were incubate for 3 days at 37° C. in a 5% CO2 incubator. The medium was replaced with new medium (200 μL/well) before adding the compound. The concentration of each compound of the examples in the stock solutions was 200 μM. The highest concentration was 200 μM, and dilution with DMSO lead to a number of different concentrations. 1 μL of the test compound was placed in the corresponding medium well, and the final test concentrations of the compounds were 0.06, 0.24, 0.98, 3.9, 15.6, 62.5, 250, 1000 nM (for calculating the medium effective concentration (EC50)).

The next data set relates to CYP450 enzymes. Briefly: CYP inhibition test, overall statement on the eight CYP450 enzymes. As to conditions: all the eight CYP450 enzymes. It counts as in vitro ADME. The protocol:
(§1) The compound was dissolved in DMSO to prepare a 10 mM stock solution. The stock solution was further diluted into a series of working solutions of 5, 1.5, 0.5, 0.15, 0.05, 0.015 and 0.005 mM with a mixed solvent of DMSO:methanol=1:1.
(§2) The substrates were each dissolved in DMSO to prepare stock solutions of the corresponding concentrations.
(§3) The positive controls were each dissolved in DMSO to prepare stock solutions of the corresponding concentrations. They were then diluted with methanol to the corresponding concentrations of working solutions.
(§4) The protein concentration of liver microsomes in the reaction system was 0.2 mg/mL, and the coenzyme NADPH was 1.0 mM. The incubation was carried out in a water bath at 37° C. The reaction was quenched and subjected to conventional procedures for LC-MS/MS analysis.
The risk of drug interaction is little, and thus higher safety exists. Other compounds of the invention all have similar safety.

For another data set, the target named is T1, CYP1A2 (Homo sapiens, UniProt P05177).
T1 construct: from tissue; host or cells: liver microsomes
T1 sequence (P05177 1-516): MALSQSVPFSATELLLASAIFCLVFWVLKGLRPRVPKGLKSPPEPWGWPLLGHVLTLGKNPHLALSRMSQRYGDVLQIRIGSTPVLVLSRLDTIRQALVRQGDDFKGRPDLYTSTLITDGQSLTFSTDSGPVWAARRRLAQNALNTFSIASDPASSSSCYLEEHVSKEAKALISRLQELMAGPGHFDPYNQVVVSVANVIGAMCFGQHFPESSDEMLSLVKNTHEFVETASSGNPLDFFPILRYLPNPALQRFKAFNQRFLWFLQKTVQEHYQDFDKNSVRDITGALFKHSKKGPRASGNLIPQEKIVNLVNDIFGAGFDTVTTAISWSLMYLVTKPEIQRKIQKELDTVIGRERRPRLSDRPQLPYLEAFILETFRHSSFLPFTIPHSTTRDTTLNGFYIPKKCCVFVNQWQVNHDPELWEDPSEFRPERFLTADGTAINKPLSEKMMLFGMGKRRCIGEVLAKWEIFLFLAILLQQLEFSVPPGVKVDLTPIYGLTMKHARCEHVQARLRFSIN
Briefly: CYP inhibition test, liver microsome incubation. As to conditions: liver microsomes, probe phenacetin. The format is in vitro ADME. The protocol:
as §1, §2, §3, §4

The target of a further data set is T2, CYP2B6 (Homo sapiens, UniProt P20813).
T2 construct: The protein concentration of liver microsomes in the reaction system was 0.2 mg/mL; from tissue; host or cells: liver microsomes
T2 sequence (P20813 1-491): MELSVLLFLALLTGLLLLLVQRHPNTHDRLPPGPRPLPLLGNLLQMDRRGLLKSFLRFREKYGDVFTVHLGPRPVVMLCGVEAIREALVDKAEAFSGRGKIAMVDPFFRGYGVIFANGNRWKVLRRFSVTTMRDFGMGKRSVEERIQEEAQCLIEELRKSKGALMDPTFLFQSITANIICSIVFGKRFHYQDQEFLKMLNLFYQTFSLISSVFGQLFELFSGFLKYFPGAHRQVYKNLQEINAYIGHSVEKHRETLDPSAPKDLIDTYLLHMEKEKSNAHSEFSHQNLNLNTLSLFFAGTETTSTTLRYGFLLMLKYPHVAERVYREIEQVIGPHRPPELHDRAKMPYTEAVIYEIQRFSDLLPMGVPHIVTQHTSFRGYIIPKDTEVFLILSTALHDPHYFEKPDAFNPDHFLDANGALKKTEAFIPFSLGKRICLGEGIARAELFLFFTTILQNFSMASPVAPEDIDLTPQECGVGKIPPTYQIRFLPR
Briefly: CYP inhibition test, liver microsome incubation. It counts as in vitro ADME. As to conditions: liver microsomes, probe bupropion. As for the experimental part: as §1, §2, §3, §4
Background: Liver microsomes are vesicles of endoplasmic reticulum, rich in cytochrome P450 enzymes.

The next data set addresses T3, CYP2C8 (Homo sapiens, UniProt P10632).
T3 construct: from tissue; host or cells: liver microsomes
T3 sequence (P10632 1-490): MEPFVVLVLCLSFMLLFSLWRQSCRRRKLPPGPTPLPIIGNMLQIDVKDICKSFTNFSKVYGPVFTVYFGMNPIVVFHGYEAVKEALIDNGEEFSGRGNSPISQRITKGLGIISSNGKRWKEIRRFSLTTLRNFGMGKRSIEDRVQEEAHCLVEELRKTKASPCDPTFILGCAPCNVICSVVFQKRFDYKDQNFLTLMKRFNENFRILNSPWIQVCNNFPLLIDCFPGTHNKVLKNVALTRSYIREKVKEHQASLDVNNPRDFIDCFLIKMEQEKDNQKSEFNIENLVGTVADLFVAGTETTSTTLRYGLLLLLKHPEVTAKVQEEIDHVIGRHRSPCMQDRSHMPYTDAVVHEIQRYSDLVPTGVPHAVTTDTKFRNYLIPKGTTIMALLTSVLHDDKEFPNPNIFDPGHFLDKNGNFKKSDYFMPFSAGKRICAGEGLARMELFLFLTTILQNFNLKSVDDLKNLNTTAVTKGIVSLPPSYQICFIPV
Briefly: CYP inhibition test, liver microsome incubation. It counts as in vitro ADME. As to conditions: liver microsomes, probe amodiaquine. As for the experimental part: as §1, §2, §3, §4

Another data set concerns the target T4, CYP3A4 (Homo sapiens, UniProt P08684).
T4 construct: The protein concentration of liver microsomes in the reaction system was 0.2 mg/mL; from tissue; host or cells: liver microsomes
Briefly: CYP inhibition test, liver microsome incubation. It counts as in vitro ADME. As to conditions: liver microsomes. The protocol: as §1, §2, §3, §4

The target in another data set is T5, CYP2C19 (Homo sapiens, UniProt P33261).
T5 construct: The protein concentration of liver microsomes in the reaction system was 0.2 mg/mL; from tissue; host or cells: liver microsomes
Briefly: CYP inhibition test, liver microsome incubation. The format is in vitro ADME. As to conditions: liver microsomes, probe methoin. The protocol:
as §1, §2, §3, §4

The target in the next data set is T6, CYP2C9 (Homo sapiens, UniProt P11712).
T6 construct: The protein concentration of liver microsomes in the reaction system was 0.2 mg/mL; from tissue; host or cells: liver microsomes
Briefly: CYP inhibition test, liver microsome incubation. As to conditions: liver microsomes, probe diclofenac. The format is in vitro ADME. As for the experimental part: as §1, §2, §3, §4

In another data set the target is T7, CYP2D6 (Homo sapiens, UniProt P10635).
T7 construct: from tissue; host or cells: liver microsomes
Briefly: CYP inhibition test, liver microsome incubation. It counts as in vitro ADME. As to conditions: liver microsomes, probe dextromethorphan. As for the experimental part: as §1, §2, §3, §4

For data set [1] the following is noted: male, ICR, mouse, in vivo, po, 10 mg/kg.

Experimental findings from patent US10899786B2, “Nucleoside phosphate compound and preparation method and use thereof” (SICHUAN KELUN-BIOTECH BIOPHARMACEUTICAL CO., LTD., priority 2016, dated 2021) are described below.

T4 sequence (P08684 whole entry): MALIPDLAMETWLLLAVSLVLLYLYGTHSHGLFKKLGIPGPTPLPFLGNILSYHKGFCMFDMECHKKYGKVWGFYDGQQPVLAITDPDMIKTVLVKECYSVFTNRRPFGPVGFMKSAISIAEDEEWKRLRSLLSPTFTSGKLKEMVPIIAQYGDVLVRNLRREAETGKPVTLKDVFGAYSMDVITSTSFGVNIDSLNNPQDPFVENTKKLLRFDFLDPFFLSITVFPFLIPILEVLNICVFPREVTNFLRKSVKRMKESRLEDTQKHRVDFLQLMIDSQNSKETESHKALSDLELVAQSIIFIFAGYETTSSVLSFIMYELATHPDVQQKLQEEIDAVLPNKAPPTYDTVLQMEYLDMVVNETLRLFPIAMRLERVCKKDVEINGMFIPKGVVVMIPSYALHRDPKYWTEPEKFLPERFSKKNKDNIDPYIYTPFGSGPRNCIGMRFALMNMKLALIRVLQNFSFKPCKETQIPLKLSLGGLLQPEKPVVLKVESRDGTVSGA
T5 sequence (P33261 whole entry): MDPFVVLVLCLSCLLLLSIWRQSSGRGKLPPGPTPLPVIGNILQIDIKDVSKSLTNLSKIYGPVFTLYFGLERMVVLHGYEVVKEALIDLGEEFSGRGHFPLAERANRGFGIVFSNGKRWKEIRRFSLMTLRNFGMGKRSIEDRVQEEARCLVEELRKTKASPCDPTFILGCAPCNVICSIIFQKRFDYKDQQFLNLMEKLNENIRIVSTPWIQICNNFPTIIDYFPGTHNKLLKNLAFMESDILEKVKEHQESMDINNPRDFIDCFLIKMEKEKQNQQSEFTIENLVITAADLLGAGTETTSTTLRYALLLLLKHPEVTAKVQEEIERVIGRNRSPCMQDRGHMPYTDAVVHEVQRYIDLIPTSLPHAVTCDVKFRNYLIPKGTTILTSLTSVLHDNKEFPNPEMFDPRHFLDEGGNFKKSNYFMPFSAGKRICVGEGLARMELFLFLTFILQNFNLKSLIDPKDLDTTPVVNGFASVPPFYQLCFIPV
T6 sequence (P11712 whole entry): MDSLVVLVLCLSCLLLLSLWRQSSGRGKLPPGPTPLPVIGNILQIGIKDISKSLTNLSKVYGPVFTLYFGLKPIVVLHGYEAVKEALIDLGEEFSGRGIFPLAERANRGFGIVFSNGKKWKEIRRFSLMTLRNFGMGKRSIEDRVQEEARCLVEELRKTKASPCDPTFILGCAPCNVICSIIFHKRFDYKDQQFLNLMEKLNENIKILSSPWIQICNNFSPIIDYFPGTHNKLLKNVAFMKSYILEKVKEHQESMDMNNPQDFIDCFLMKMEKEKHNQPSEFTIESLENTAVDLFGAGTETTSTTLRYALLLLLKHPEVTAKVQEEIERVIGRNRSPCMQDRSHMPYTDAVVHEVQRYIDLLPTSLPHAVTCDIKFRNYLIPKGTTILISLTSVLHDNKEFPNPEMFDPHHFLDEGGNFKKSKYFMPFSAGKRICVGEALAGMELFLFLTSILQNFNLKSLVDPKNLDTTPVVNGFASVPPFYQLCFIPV
T7 sequence (P10635 whole entry): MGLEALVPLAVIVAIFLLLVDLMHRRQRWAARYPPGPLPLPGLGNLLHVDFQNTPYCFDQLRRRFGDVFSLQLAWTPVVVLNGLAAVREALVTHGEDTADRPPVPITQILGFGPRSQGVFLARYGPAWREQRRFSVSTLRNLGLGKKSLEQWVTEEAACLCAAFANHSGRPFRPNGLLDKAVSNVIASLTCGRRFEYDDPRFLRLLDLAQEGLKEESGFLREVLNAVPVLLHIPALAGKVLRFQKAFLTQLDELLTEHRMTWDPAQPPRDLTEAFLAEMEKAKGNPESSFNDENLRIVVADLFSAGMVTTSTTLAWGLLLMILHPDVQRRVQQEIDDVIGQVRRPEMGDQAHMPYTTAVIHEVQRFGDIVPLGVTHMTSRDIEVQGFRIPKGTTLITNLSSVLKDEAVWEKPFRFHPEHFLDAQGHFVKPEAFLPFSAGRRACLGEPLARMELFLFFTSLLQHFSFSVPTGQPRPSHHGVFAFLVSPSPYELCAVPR

For orientation: EC50 means the concentration giving half of the maximal effect. As usually defined, the IC50 is the midpoint of a concentration-inhibition curve. A higher IC50 goes with a need for much substance. With `C[C@H](Cn1cnc2c(N)ncnc21)OCP(=O)(NCCOCc1ccccc1)Oc1ccccc1` (mixture of isomers) [Ex. 15, ((((R)-1-(6-amino-9H-purin-9-yl)propan-2-yl)oxy)methyl)-phenoxy-N-(2-(benzyloxy)ethyl)phosphoramide], the response in the data set on hepatitis B virus (HBV) was half-maximal at 0.0547 ± 0.0264 µM (EC50). In addition, the “inhibitory effect on the eight CYP450 enzymes (in words)” value in the data set with CYP450 enzymes was “no inhibitory effect”. The half-maximal inhibitory concentration (IC50) against CYP1A2 was more than 50 µM; on CYP2B6, more than 50 µM; against CYP2C8, more than 50 µM; against CYP3A4 (probe midazolam), 11.6 µM; at CYP3A4 (probe testosterone) it was 13.3 µM; against CYP2C19, more than 50 µM. For the same molecule, the IC50 on CYP2C9 and on CYP2D6 was more than 50 µM in each case.
On to `C[C@H](Cn1cnc2c(N)ncnc21)OCP(=O)(O)O` (single isomer, unassigned) [Metabolite 1 of Compound 22 - Isomer B of Example 16], for which the “concentration of Metabolite 1 in liver relative to the plasma concentration” value in data set [1] is given as 21 times.
